Source: US7868013B2, “Cycloalkyl substituted pyrimidinediamine compounds and their uses” (Rigel Pharmaceuticals, Inc., priority 2004, dated 2011)
Structures can show the parent of a compound that is named as a salt. Where two headings read alike, the source gives them in different places. Values belong to the compound of their own block, whether it stands above or below them.

Tests used:
A549 (lung carcinoma) = assay: In vitro antiproliferation assay, A549 cells (TABLE 1 6 point assay; TABLE 2); type: cell-based
Description: (§1) Certain compounds were tested against other cell types for their ability to inhibit proliferation in standard antiproliferation assays.

[1] = test system: H1299 (non-small cell lung carcinoma); assay: In vitro antiproliferation assay, H1299 cells (TABLE 1 6 point assay; TABLE 2); type: cell-based
Description: as §1

[2] = Homo sapiens, A549, 6 point assay, A549 cells, read-out: IC50, A549 cells
[3] = Homo sapiens, NCI-H1299, 6 point assay, H1299 cells, read-out: IC50, H1299 cells
[4] = H1299 cells, 6 point assay, read-out: H1299, 6pt (IC50, inhibition of proliferation)
[5] = Homo sapiens, A549, A549 cells, 6 point assay, read-out: A549, 6pt (IC50, inhibition of proliferation)
[6] = Homo sapiens, NCI-H1299, H1299 cells, 6 point assay, read-out: H1299, 6pt (IC50, inhibition of proliferation)
[7] = 6 point assay, A549 cells, read-out: IC50, A549 cells
[8] = 6 point assay, H1299 cells, read-out: IC50, H1299 cells

Compound: Cc1cc(Nc2ncc(F)c(N[C@H]3[C@@H](C(N)=O)[C@@H]4C=C[C@H]3C4)n2)ccc1N1CCN(C)CC1 [compound 142, (1R,2R,3S,4S)-N4-(3-Aminocarbonylbicyclo[2.2.1]hept-5-en-2-yl)-5-fluoro-N2-[3-methyl-4-(4-methylpiperazin-1-yl)phenyl]-2,4-pyrimidinediamine Sulfuric Acid Salt]
IC50 [1, 4]: ≤ 0.1 µM

Compound: CN1CCC(c2ccc(Nc3ncc(F)c(NC4C5C=CC(C5)C4C(N)=O)n3)cc2)CC1 (racemic) [compound 265, Racemic-(2-exo,3-exo)-N4-(3-aminocarbonylbicyclo[2.2.1]hept-5-en-2-yl)-5-fluoro-N2-[4-(1-methylpiperidin-4-yl)phenyl]-2,4-pyrimidinediamine]
IC50 (A549 (lung carcinoma); [2]): ≤ 0.1 µM
IC50 [1, 3]: ≤ 0.1 µM

Compound: Cc1cc(Nc2ncc(F)c(N[C@H]3[C@@H](C(N)=O)[C@@H]4C=C[C@H]3C4)n2)ccc1N1CCN(C)CC1 [compound 143, (1R,2R,3S,4S)-N4-(3-Aminocarbonylbicyclo[2.2.1]hept-5-en-2-yl)-5-fluoro-N2-[3-methyl-4-(4-methylpiperazin-1-yl)phenyl]-2,4-pyrimidinediamine (S)- Mandelic Acid Salt]
IC50 [1, 4]: ≤ 0.1 µM

Compound: CN(C)CCn1ccc2ccc(Nc3ncc(F)c(NC4C5CCC(C5)C4C(=O)NC4CC4)n3)cc21 (racemic) [compound 179, Racemic-(2-exo,3-exo)-N4-[3-cyclopropylaminocarbonylbicyclo[2.2.1]hept-2-yl)-N2-[1-(2-dimethylaminoethyl)indol-6-yl]-5-fluoro-2,4-pyrimidinediamine]
IC50 (A549 (lung carcinoma); [5]): 0.1 to 1 µM
IC50 [1, 6]: 0.1 to 1 µM

Compound: Cc1cc(Nc2ncc(F)c(N[C@H]3CCC[C@H]3C(N)=O)n2)ccc1N1CC(C)OC(C)C1 (mixture of isomers) [compound 283, Racemic-cis-N4-(2-aminocarbonylcyclopent-1-yl)-N2-[4-(2,6-dimethylmorpholino)-3-methyl]phenyl-5-fluoro-2,4-pyrimidinediamine]
IC50 (A549 (lung carcinoma); [2]): 0.1 to 1 µM
IC50 [1, 3]: 0.1 to 1 µM

Compound: Cc1cc(Nc2ncc(F)c(NC3C4C=CC(C4)C3C(N)=O)n2)ccc1O (racemic) [compound 277, Racemic-(2-exo,3-exo)-N4-(3-aminocarbonylbicyclo[2.2.1]hept-5-en-2-yl)-5-fluoro-N2-(4-hydroxy-3-methylphenyl)-2,4-pyrimidinediamine Bis- Hydrochloride Salt]
IC50 (A549 (lung carcinoma); [7]): ≤ 0.1 µM
IC50 [1, 8]: ≤ 0.1 µM

Compound: Cc1cc(Nc2ncc(F)c(NC3C4CC5CC(C4)CC3C5)n2)ccc1N1CCN(C)CC1 (centres unmarked) [compound 258, N4-(2-Adamantyl)-5-fluoro-N2-[3-methyl-4-(4-methylpiperazin-1-yl)phenyl]-2,4-pyrimidinediamine]
IC50 (A549 (lung carcinoma); [2]): 1 to 10 µM
IC50 [1, 3]: 1 to 10 µM

Compound: CN1CCN(c2ccc(Nc3ncc(F)c(NC4CCCC4C(N)=O)n3)cc2Cl)CC1 (stereo not drawn) [compound 205, (cis)-N4-(2-Carboxamidocyclopent-1-yl)-N2-[3-chloro-4-(4-methylpiperazino)phenyl]-5-fluoro-2,4-pyrimidinediamine]
IC50 (A549 (lung carcinoma); [7]): 0.1 to 1 µM
IC50 [1, 8]: 0.1 to 1 µM

Compound: CCOC(=O)[C@@H]1CCC[C@H]1Nc1nc(Nc2ccc(N3CCN(C)CC3)c(C)c2)ncc1F [compound 210, (1R,2R)-N4-(2-Ethoxycarbonylcyclopent-1-yl)-5-fluoro-N2-{3-methyl-4-(4-methylpiperazino)phenyl]-2,4-pyrimidinediamine]
IC50 (A549 (lung carcinoma); [2]): 1 to 10 µM
IC50 [1, 3]: 1 to 10 µM

Compound: Cc1cc(Nc2ncc(F)c(NC3CC=CC3)n2)ccc1N1CCN(C)CC1 [compound 237, N4-(Cyclopent-3-ene-1-yl)-5-fluoro-N2-[3-methyl-4-(4-methylpiperazin-1-yl)phenyl]-2,4-pyrimidinediamine]
IC50 (A549 (lung carcinoma); [2]): 0.1 to 1 µM
IC50 [1, 3]: 1 to 10 µM

Compound: CN1CCc2cc(Nc3ncc(F)c(NC4C5C=CC(C5)C4C(N)=O)n3)ccc21 (racemic) [compound 174, Racemic-(2-exo,3-exo)-N4-[3-aminocarbonylbicyclo[2.2.1]hept-5-en-2-yl)-5-fluoro-N2-(1-methy-2,3-dihydrolindol-5-yl)-2,4-pyrimidinediamine]
IC50 (A549 (lung carcinoma); [5]): 0.1 to 1 µM
IC50 [1, 6]: 0.1 to 1 µM

Compound: CS(=O)(=O)N1CCc2cc(Nc3ncc(F)c(N[C@H]4[C@@H](C(N)=O)[C@@H]5C=C[C@H]4C5)n3)ccc21 [compound 188, (1R,2R,3S,4S)-N4-(3-Aminocarbonylbicyclo[2.2.1]hept-5-en-2-yl)-5-fluoro-N2-[1-methylsulfonyl-2,3-dihydro-indol-5-yl]-2,4-pyrimidinediamine]
IC50 (A549 (lung carcinoma); [5]): ≤ 0.1 µM
IC50 [1, 6]: ≤ 0.1 µM

Compound: CN(C)CCN1CCc2cc(Nc3ncc(F)c(N[C@@H]4[C@H](C(N)=O)[C@H]5C=C[C@@H]4C5)n3)ccc21 [compound 187, (1S,2S,3R,4R)-N4-[3-Aminocarbonylbicyclo[2.2.1]hept-5-en-2-yl]-N2-[1-(2-dimethylaminoethyl)-2,3-dihydroindol-5-yl]-5-fluoro-2,4-pyrimidinediamine]
IC50 (A549 (lung carcinoma); [5]): 1 to 10 µM
IC50 [1, 6]: 1 to 10 µM

Compound: Cc1cc(Nc2ncc(F)c(N[C@H]3[C@@H](C(N)=O)[C@@H]4C=C[C@H]3C4)n2)ccc1N1CCN(C)CC1 [compound 141, (1R,2R,3S,4S)-N4-(3-Aminocarbonylbicyclo[2.2.1]hept-5-en-2-yl)-5-fluoro-N2-[3-methyl-4-(4-methylpiperazin-1-yl)phenyl]-2,4-pyrimidinediamine Nitric Acid Salt]
IC50 [1, 6]: ≤ 0.1 µM

Compound: Cc1cc(Nc2ncc(F)c(N[C@H]3[C@@H](C(N)=O)[C@@H]4C=C[C@H]3C4)n2)ccc1N1CCN(C)CC1 [compound 139, (1R,2R,3S,4S)-N4-(3-Aminocarbonylbicyclo[2.2.1]hept-5-en-2-yl)-5-fluoro-N2-[3-methyl-4-(4-methylpiperazin-1-yl)phenyl]-2,4-pyrimidinediamine Trifluoroacetic Acid Salt]
IC50 [1, 4]: ≤ 0.1 µM

Compound: Cc1cc(Nc2ncc(F)c(N[C@H]3[C@@H](C(N)=O)[C@@H]4C=C[C@H]3C4)n2)ccc1N1CCN(C)CC1 [compound 144, (1R,2R,3S,4S)-N4-(3-Aminocarbonylbicyclo[2.2.1]hept-5-en-2-yl)-5-fluoro-N2-[3-methyl-4-(4-methylpiperazin-1-yl)phenyl]-2,4-pyrimidinediamine p- Toluenesulfonic Acid Salt]
IC50 [1, 4]: ≤ 0.1 µM

Compound: Cc1cc(Nc2ncc(F)c(N[C@H]3[C@@H](C(N)=O)[C@@H]4C=C[C@H]3C4)n2)ccc1N1CCN(C)CC1 [compound 140, (1R,2R,3S,4S)-N4-(3-Aminocarbonylbicyclo[2.2.1]hept-5-en-2-yl)-5-fluoro-N2-[3-methyl-4-(4-methylpiperazin-1-yl)phenyl]-2,4-pyrimidinediamine Methanesulfonic Acid Salt]
IC50 [1, 4]: ≤ 0.1 µM

The remaining lines, values ahead:

IC50 (A549 (lung carcinoma); [2]): 0.1 to 1 µM
IC50 [1, 3]: 0.1 to 1 µM
Compound: Cc1cc(Nc2ncc(F)c(NC3C4C=CC(C4)C3C(N)=O)n2)ccc1N1CCCC1 (racemic) [Compound 288, Racemic-(2-exo,3-exo)-N4-(3-aminocarbonylbicyclo[2.2.1]hept-5-en-2-yl)-5-fluoro-N2-[3-methyl-4-(pyrrolidino)phenyl]-2,4-pyrimidinediamine]

IC50 (A549 (lung carcinoma); [5]): > 10 µM
IC50 [1, 6]: 1 to 10 µM
Compound: Cc1cc(Nc2ncc(F)c(NC3C4C=CC(C4)C3C(N)=O)n2)ccc1N1CCNCC1 (racemic) [compound 108]

IC50 (A549 (lung carcinoma); [5]): ≤ 0.1 µM
IC50 [1, 6]: ≤ 0.1 µM
Compound: CCCNC(=O)C1C2C=CC(C2)C1Nc1nc(Nc2ccc(N3CCN(C)CC3)c(C)c2)ncc1F (racemic) [compound 168, Racemic-(2-exo,3-exo)-5-fluoro-N2-[4-(4-methylpiperazin-1-yl)-3-methylphenyl]-N4-[3-(N-n-propyl)aminocarbonylbicyclo[2.2.1]hept-5-en-2-yl]-2,4-pyrimidinediamine]

IC50 (A549 (lung carcinoma); [2]): 1 to 10 µM
IC50 [1, 3]: 1 to 10 µM
Compound: COC(=O)[C@@H]1CCC[C@@H]1Nc1nc(Nc2ccc(N3CCN(C)CC3)c(C)c2)ncc1F (racemic) [compound 218, Racemic-cis-5-fluoro-N2-[3-methyl-4-(4-methylpiperazin-1-yl)phenyl]-N4-(2-methoxycarbonylcyclopent-1-yl)-2,4-pyrimidinediamine]

IC50 (A549 (lung carcinoma); [5]): ≤ 0.1 µM
IC50 [1, 6]: ≤ 0.1 µM
Compound: Cc1cc(Nc2ncc(F)c(NC3C4C=CC(C4)C3C(=O)NC3CC3)n2)ccc1N1CCN(C)CC1 (racemic) [compound 164, Racemic-(2-exo,3-exo)-N4-[3-(N-cyclopropyl)aminocarbonylbicyclo[2.2.1]hept-5-en-2-yl)-5-fluoro-N2-[3-methyl-4-(4-methylpiperazin-1-yl)phenyl]-2,4-pyrimidinediamine]

IC50 (A549 (lung carcinoma); [5]): 0.1 to 1 µM
IC50 [1, 6]: 0.1 to 1 µM
Compound: Cc1cc(Nc2ncc(F)c(N[C@H]3[C@@H](C(=O)NC(C)c4ccccc4)[C@@H]4C=C[C@H]3C4)n2)ccc1N1CCN(C)CC1 (stereo partly drawn) [compound 109, (1R,2R,3S,4S)-N4-5-Fluoro-N4-(3-(R)-alpha-methylbenzylaminocarbonylbicyclo[2.2.1]hept-5-en-2-yl)-N2-[3-methyl-4-(4-methylpiperazin-1-yl)phenyl]-2,4-pyrimidinediamine]

IC50 (A549 (lung carcinoma); [5]): 0.1 to 1 µM
IC50 [1, 6]: 0.1 to 1 µM
Compound: Cc1cc(Nc2ncc(F)c(N[C@H]3CCC[C@H]3C(=O)NC3CC3)n2)ccc1N1CCN(C)CC1 (racemic) [compound 159, Racemic-cis-N4-[2-(N-cyclpropyl)aminocarbonylcyclopent-1-yl]-5-fluoro-N2-[4-(4-methylpiperazin-1-yl)-3-methylphenyl]-2,4-pyrimidinediamine]

IC50 (A549 (lung carcinoma); [5]): ≤ 0.1 µM
IC50 [1, 6]: ≤ 0.1 µM
Compound: CCNC(=O)C1C2C=CC(C2)C1Nc1nc(Nc2ccc(N3CCN(C)CC3)c(C)c2)ncc1F (racemic) [compound 167, Racemic-(2-exo,3-exo)-N4-[3-(N-ethyl)aminocarbonylbicyclo[2.2.1]hept-5-en-2-yl]-5-fluoro-N2-[3-methyl-4-(4-methylpiperazin-1-yl)phenyl]-2,4-pyrimidinediamine]
